Measurements from patent US20070135499A1 (Aerie Pharmaceuticals, Inc., priority 2005, published 2007).

Target: T1, hGRK-2 (Homo sapiens, UniProt P25098)
T1 sequence (P25098 1-689): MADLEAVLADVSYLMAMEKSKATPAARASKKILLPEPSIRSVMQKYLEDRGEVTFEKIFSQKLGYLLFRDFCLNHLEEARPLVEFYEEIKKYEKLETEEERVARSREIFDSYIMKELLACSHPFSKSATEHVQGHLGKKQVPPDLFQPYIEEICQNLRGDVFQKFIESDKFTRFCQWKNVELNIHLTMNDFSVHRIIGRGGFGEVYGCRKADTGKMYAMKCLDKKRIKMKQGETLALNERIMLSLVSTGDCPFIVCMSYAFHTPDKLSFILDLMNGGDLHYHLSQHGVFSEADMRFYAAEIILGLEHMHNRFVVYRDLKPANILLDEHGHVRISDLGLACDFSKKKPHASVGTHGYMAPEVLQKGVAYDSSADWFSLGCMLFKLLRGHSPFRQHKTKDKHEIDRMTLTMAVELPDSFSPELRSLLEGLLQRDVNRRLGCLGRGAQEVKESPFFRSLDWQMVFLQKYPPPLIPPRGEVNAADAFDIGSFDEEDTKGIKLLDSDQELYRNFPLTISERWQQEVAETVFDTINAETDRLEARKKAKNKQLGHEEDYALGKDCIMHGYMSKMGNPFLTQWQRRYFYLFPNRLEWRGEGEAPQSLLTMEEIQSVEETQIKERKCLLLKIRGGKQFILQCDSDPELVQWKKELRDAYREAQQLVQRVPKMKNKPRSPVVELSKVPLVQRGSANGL
Assay: luciferase-based (Kinase-Glo) biochemical kinase inhibition assay, hGRK-2
Conditions: luciferase assay, casein substrate, 10 μM ATP; read-out: GRK-2 inhibition, Ki class
Method: The inhibition of G-protein-coupled receptor kinases including hGRK-2 was determined for the hydrazide compounds using a biochemical assay. The inhibition of GRK-3, GRK-5 and GRK-6 was also determined using the same assay for some of the hydrazide derivatives.
The protein kinase inhibition was determined using a biochemical assay utilizing the light emission of a luciferase reaction. The luciferase-based assay operates on the following reaction principles: [drawing 10]
An inhibitor of GRK-2 will increase in the amount of ATP in solution, as shown. Thus, an inhibitor of GRK-2 will drive the luciferase reaction to the right, resulting in more light emitted. The amount of light emitted is proportional to the inhibition resulting from the GRK-2 inhibitor. The luciferase-based assay was also used to test some of the hydrazides for the inhibition properties towards other kinases.
The test procedure was as follows:
• 50 mM HEPES, pH 7.5 • 10 mM MgCl2 • 100 μM activated sodium orthovanadate • 0.01% CHAPS • 0.1% BSA • 1 mM DTT (added fresh daily) 10× Assay Buffer Stock: • 500 mM HEPES, pH 7.5 • 100 mM MgCl2 • 1 mM activated sodium orthovanadate • 0.1% CHAPS • 1% BSA (leave out for 10× compound dilution buffer) Final Assay Conditions: • 50 μM test compound • 20 μM casein • 10 μM ATP • 50 nM hGRK2 • 4.5% DMSO • 90-120 minute incubation
Stopped by addition of 30 μl 3×-diluted Kinase-Glo reagent containing 0.01% trypan blue. Counted on FUSION plate reader.
Compound Dilution and Transfer
Prepare sufficient buffer containing 40% DMSO to add 20 μl/well to the number of plates being assayed. This buffer should not contain BSA because it will precipitate with addition of 40% DMSO. (EXAMPLE: To make 3000 ml compound dilution buffer: 1200 ml DMSO, 180 ml 10× compound dilution buffer, 1615 ml ultrapure water, 3 ml 1M DTT.).
Using Multidrop, add 20 μl of compound dilution buffer to all wells of the 384-well daughter plate (add 1 μl DMSO to control wells). This will result in a daughter plate which contains 21 μl of ˜500 μM test compound.
Using the PlateTrak, transfer 5 μl of the test compounds to a 384-well, non-binding, white microtiter plate.
Prepare sufficient volume of buffer (with BSA and 1 mM DTT) containing 125 nM GRK2 and 25 μM ATP. (Example: To 219 ml of buffer was added 550 μl 10 mM ATP and 350 μl 79 μM GRK2).
Using Multidrop, add 20 μl of GRK2/ATP mixture to all wells of the microtiter plate.
Prepare sufficient volume of buffer (with BSA and 1 mM DTT) containing 40 μM casein. (EXAMPLE: To 211 ml buffer add 8.8 ml 1 mM casein)
Using Multidrop, add 25 μl to columns 1 through 23 of the microtiter plate. Add 25 μl of complete buffer to column 24 (blanks).
Mix reaction gently by tapping (Multidrop addition of casein does a decent job of mixing), stack plates and incubate at room temperature for between 90 and 120 minutes. Assay progression can be tracked in a separate plate if desired. Target 20-30% ATP consumption. Try to avoid exceeding 40% consumption as kinetics might become non-linear due to substrate (ATP) depletion.
Addition of Kinase-Glo Reagents
The Kinase-Glo reagent can be diluted 3-fold with no loss of data quality in this assay. Additionally, since the library contains many colored compounds which will quench the light emitted from the well resulting in a false negative (kinase inhibitors result in less ATP consumption thus more light emitted), the entire reaction is subject to intentional quench to override this effect. This intentional quench is accomplished by the addition of 0.01% trypan blue to the Kinase-Glo reagents. (EXAMPLE: 100 ml 1× Kinase-Glo reagents (prepared according to product insert), 200 ml assay buffer, 7.5 ml 0.4% trypan blue.
Using Multidrop, add 30 μl to all wells of the assay plate.
Count on FUSION plate reader in luminescence mode.

Compound	Ki
NC(=O)c1ccc(NCC(=O)N/N=C/c2ccncc2)cc1 [Example 75, 4-{[1-Pyridin-4-yl-meth-(E)-ylidene-hydrazinocarbonylmethyl]-amino}-benzamide]	> 10 µM
O=C(CNc1ccccc1Br)N/N=C/c1c(Cl)cncc1Cl [Example 29, (2-Bromo-phenylamino)-acetic acid [1-(3,5-dichloro-pyridin-4-yl)-meth-(E)-ylidene]-hydrazide]	> 10 µM
O=C(CNc1cccc([N+](=O)[O-])c1)N/N=C/c1c(Cl)cncc1Cl [Example 7, (3-Nitro-phenylamino)-acetic acid [1-(3,5-dichloro-pyridin-4-yl)-meth-(E)-ylidene]-hydrazide]	1 to 10 µM
Cc1ccccc1NCC(=O)N/N=C/c1ccncc1 [Example 65, o-Tolylamino-acetic acid [1-pyridin-4-yl-meth-(E)-ylidene]-hydrazide]	> 10 µM
CS(=O)(=O)c1cccc(NCC(=O)N/N=C/c2c(Cl)cncc2Cl)c1 [Example 23, (3-Methanesulfonyl-phenylamino)-acetic acid [1-(3,5-dichloro-pyridin-4-yl)-meth-(E)-ylidene]-hydrazide]	1 to 10 µM
CCOc1ccccc1NCC(=O)N/N=C/c1ccncc1 [Example 66, (2-Ethoxy-phenylamino)-acetic acid [1-pyridin-4-yl-meth-(E)-ylidene]-hydrazide]	> 10 µM
O=C(CNc1ccc(I)cc1)N/N=C/c1ccncc1 [Example 71, (4-Iodo-phenylamino)-acetic acid [1-pyridin-4-yl-meth-(E)-ylidene]-hydrazide]	> 10 µM
O=C(CNc1cccc(OCCN2CCOCC2)c1)N/N=C/c1c(Cl)cncc1Cl [Example 32, [3-(2-Morpholin-4-yl-ethoxy)-phenylamino]-acetic acid [1-(3,5-dichloro-pyridin-4-yl)-meth-(E)-ylidene]-hydrazide]	1 to 10 µM
O=C(CNc1cccc(-n2cccn2)c1)N/N=C/c1c(Cl)cncc1Cl [Example 34]	> 10 µM
Cc1cccc(NCC(=O)N/N=C/c2c(Cl)cncc2Cl)c1 [Example 8, m-Tolylamino-acetic acid [1-(3,5-dichloro-pyridin-4-yl)-meth-(E)-ylidene]-hydrazide]	1 to 10 µM
CS(=O)(=O)Nc1cccc(NCC(=O)N/N=C/c2ccncc2)c1 [Example 64]	> 10 µM
CCc1ccccc1NCC(=O)N/N=C/c1ccncc1 [Example 68, (2-Ethyl-phenylamino)-acetic acid [1-pyridin-4-yl-meth-(E)-ylidene]-hydrazide]	> 10 µM
N#Cc1ccc(NCC(=O)N/N=C/c2ccncc2)cc1 [Example 60]	1 to 10 µM
CC(Nc1cccc(Oc2ccccc2)c1)C(=O)N/N=C/c1c(Cl)cncc1Cl (centres unmarked) [Example 98, 2-(3-Phenoxy-phenylamino)-propionic acid [1-(3,5-dichloro-pyridin-4-yl)-meth-(E)-ylidene]-hydrazide]	> 10 µM
O=C(CNc1cccc(Cl)c1)N/N=C/c1ccoc1 [Example 94, (3-Chloro-phenylamino)-acetic acid [1-furan-3-yl-meth-(E)-ylidene]-hydrazide]	1 to 10 µM
Dimethyl-carbamic acid 3-{[1-pyridin-4-yl-meth-(E)-ylidene-hydrazinocarbonyl-methyl]-amino}-phenyl ester [Example 101]	> 10 µM
O=C(COc1cccc(Cl)c1)N/N=C/c1ccncc1 [Example 38, (3-Chloro-phenoxy)-acetic acid [1-pyridin-4-yl-meth-(E)-ylidene]-hydrazide]	> 10 µM
CC(C)c1ccccc1NCC(=O)N/N=C/c1ccncc1 [Example 69, (2-Isopropyl-phenylamino)-acetic acid [1-pyridin-4-yl-meth-(E)-ylidene]-hydrazide]	> 10 µM

The next lines start with the values.

Ki	Compound
1 to 10 µM	CCc1ccccc1NCC(=O)N/N=C/c1c(Cl)cncc1Cl [Example 26, (2-Ethyl-phenylamino)-acetic acid [1-(3,5-dichloro-pyridin-4-yl)-ylidene]-hydrazide]
1 to 10 µM	CCc1cccc(NCC(=O)N/N=C/c2ccncc2)c1 [Example 59, (3-Ethyl-phenylamino)-acetic acid [1-pyridin-4-yl-meth-(E)-ylidene]-hydrazide]
1 to 10 µM	Cc1ccccc1NCC(=O)N/N=C/c1c(Cl)cncc1Cl [Example 25, o-Tolylamino-acetic acid [1-(3,5-dichloro-pyridin-4-yl)-meth-(E)-ylidene]-hydrazide]
1 to 10 µM	O=C(CNc1ccccc1Cc1ccccc1)N/N=C/c1ccncc1 [Example 70, (2-Benzyl-phenylamino)-acetic acid [1-pyridin-4-yl-meth-(E)-ylidene]-hydrazide]
1 to 10 µM	CS(=O)(=O)c1cccc(NCC(=O)N/N=C/c2ccncc2)c1 [Example 73, (3-Methanesulfonyl-phenylamino)-acetic acid [1-pyridin-4-yl-meth-(E)-ylidene]-hydrazide]
1 to 10 µM	O=C(CNc1cccc(Br)c1)N/N=C/c1c(Cl)cncc1Cl [Example 6, (3-Bromo-phenylamino)-acetic acid [1-(3,5-dichloro-pyridin-4-yl)-meth-(E)-ylidene]-hydrazide]
1 to 10 µM	Cc1cccc(NCC(=O)N/N=C/c2ccncc2)c1 [Example 46, (3-Methyl-phenylamino)-acetic acid [1-pyridin-4-yl-meth-(E)-ylidene]-hydrazide]
0.1 to 1 µM	O=C(CNc1cccc(I)c1)N/N=C/c1ccncc1 [Example 49, (3-Iodo-phenylamino)-acetic acid [1-pyridin-4-yl-meth-(E)-ylidene]-hydrazide]
1 to 10 µM	CC(C)Oc1cccc(NCC(=O)N/N=C/c2ccncc2)c1 [Example 58, (3-Isopropoxy-phenylamino)-acetic acid [1-pyridin-4-yl-meth-(E)-ylidene]-hydrazide]
0.1 to 1 µM	O=C(CNc1cccc(C(=O)Nc2cccnc2)c1)N/N=C/c1ccncc1 [Example 80, N-Pyridin-3-yl-3-{[1-pyridin-4-yl-meth-(E)-ylidene-hydrazinocarbonylmethyl]-amino}-benzamide]
0.01 to 0.1 µM	O=C(CNc1cccc(C(=O)NCCN2CCOCC2)c1)N/N=C/c1c(Cl)cncc1Cl [Example 33, 3-{[1-(3,5-Dichloro-pyridin-4-yl)-meth-(E)-ylidene-hydrazinocarbonylmethyl]-amino}-N-(2-morpholin-4-yl-ethyl)-benzamide]
